Test results taken from EP0326326A1, “Cysteine derivatives” (SANTEN PHARMACEUTICAL CO., LTD., priority 1988, dated 1989).

How the values were obtained:
[1] = test system: haemolytic plaque-forming spleen cells; test: Effect on immune response against sheep red blood cells of mouse (haemolytic plaque-forming spleen cell count); type: in vivo, female BALB/c mice; conditions: Erythrocyte, ip, 96 h, mice immunized with 5 x 10⁸ sheep red blood cells i.p., compound administered continuously for 4 days, calculated from the cell count, read-out: 50% suppressive dose
Description: According to the method of Iso ( Int. J. Immunotherapy, 1, 93 (1985)), 5 x 10⁸ sheep red blood cells were administered intraperitoneally to female BALB/c mice ( 3 to 5 mice a group ) and immunized.
After immunization, the test compound suspended in 1% methyl cellulose solution was administered continuously for 4 days.
Mice were killed and the number of haemolytic plaque-forming spleen cells were measured.
50% suppressive dose was calculated based on the cell count. For a comparison, the similar test with the known compound of the formula[IV] described in US Patent 4305958 was performed.

[2] = Acute toxicity; parameters: species or system ddY mice; conditions: mouse, in vivo; oral, ddY mice, male, single dose of 2000mg/kg; read-out: LD₅₀
Description: (§1) The compound No.2 was suspended in 0.5% methyl cellulose solution at 20% concentration. The solution was administered orally to ddY mice ( male, 5 weeks age, 6 mice a group ) at a dose of 2000mg/kg.

[3] = test system: ddY mice; test: Acute toxicity; conditions: mouse, in vivo, po, 2000 mg/kg
Description: as §1

[4] = test system: liver disorder caused by CCl₄; test: Effect on the liver disorder caused by CCl₄ (serum GOT and GPT levels); type: in vivo, male Wistar rats; conditions: 24 hours after CCl₄ 0.25ml/kg intraperitoneally, test compound 300mg/kg orally 30 minutes before, rat
Description: The rat liver disorder model cause by CCl₄ is generally used to examine the efficacy of a drug for liver diseases.
The test compound was suspended in tragacanth gum solution and administered orally to male Wistar rats ( 5rats a group) at a dose of 300mg/kg.
Thirty minutes later, CCl₄ a liver disorder inducer, was given intraperitoneally at a dose of 0.25ml/kg.
Serum GOT and GPT levels were measured 24 hours after the administration of CCl₄ . To a control, 0.5% tragacanth gum solution was given.

SMILES | ED50 [1] [mg/kg] | LD50 [2] [mg/kg] | Toxicity [3] | GOT [4] | GPT [4]
CC(C)(S)C(=O)NC(CS)C(=O)O (stereo not drawn) [known compound, reference compound] | 90.6 |  |  |  | 
CC(C)(CS)C(=O)N[C@@H](CS)C(=O)O [Compound No.2, N-(2,2-Dimethyl-3-mercaptopropionyl)-L-cysteine] | 19.1 | > 2000 | weak with a single case of death | 13605 | 6558
